Here are results for three molecules from US20160256481A1, “USE OF WATER SOLUBLE PLATINUM COMPLEX IN PREPARING DRUGS FOR PREVENTION AND TREATMENT OF CANCERS” (GUDUI BIOPHARMA TECHNOLOGY INC., priority 2011, published 2016).

Series [1] concerns L1210 tumor cells. Nature of the series: Antitumor efficacy in L1210 tumor-bearing CDF1 mice (increase in life span). Type of series: in vivo. As to conditions: for Survived Animals on Day 42: 6 per group; for Weight Changes: from the first day to the seventh day. Here is the method:
In the following test, antitumor efficacy studies were performed using 8-9 weeks old female CDF1 mice, the average weight of the animal is 20-25 grams. L1210 tumor cells (about 10^5 cells per mouse) were inoculated intraperitoneally. The water-soluble platinum complexes were used to treat the tumor-bearing animals and the efficacy was compared compared with the clinical platinum antitumor drugs. […] Drugs were administered intraperitoneally on day 1 and day 4 after tumor cell transplantation. The number of experimental animals in each group was 6.
The experimental animals were purchased from Vital River Laboratory Animal Technology Co. Ltd., Tumor cells L1210-leukemia cells were purchased from Shanghai An Yan Commercial Trade Co. Ltd.
The increase in life span (ILS) is calculated as follows:
Wherein, St=the weighted median survival time of treated animals; Su=the weighted median survival time of untreated animals

For series [2] the following is noted: cited from earlier work.
Series [3] deals with A549-human non-small cell lung cancer (adenocarcinoma). As to the kind of experiment: MTS cytotoxicity assay (IC50). As to conditions: A549, 96 h, read-out: IC50 value in human tumor cells A549. Type of series: cell-based. As for the experimental part: (§1) Containing 10% bovine fetal serum, 1 mM of sodium pyruvate, 2 mM of L-glutamine, 50 U/mL of penicillin, 50 μg/mL of streptomycin
(§2) Human tumor cells: du145-human prostate cancer; MCF-7-human breast cancer; SK0V3-human ovarian carcinoma, HT-29-human colon cancer; A549-human non-small cell lung cancer (adenocarcinoma), H460-human non-small cell lung cancer (large cell carcinoma), and animal tumor cells: L 1210-mice leukemia cells used in the following activity test experiments were all purchased from Shanghai An Yan Commercial Trade Co., Ltd.
(§3) MTS test method was used in cytotoxicity assay. The tumor cells of logarithmic phase were collected, and then the concentration of cell suspension was adjusted, 100 μL of the cell suspension was added to each well, the cells were placed at 1000-10000 cells/well (edge well filled with sterile PBS). Cells were incubated at 37° C. with 5% CO2 to make cell monolayer overspread the bottom of each well (96-well flat-bottomed microplate). 100 μL of different concentrations of the test compounds was added to each well. Each condition was measured in five replicates. The microplate was incubated at 37° C. with 5% CO2 for 96 h and checked with inverted microscope. MTS working reagent: To 2 mL of MTS (2 mg/mL, prepared by DPBS) was added 100 μL of PMS (1 mg/mL, prepared by DPBS). The cell culture medium was discarded after centrifugation, the cell culture plate was carefully washed 2-3 times with PBS. Before detecting the absorbance value (OD), to each sample containing well was added 100 μL of cell culture medium, then 20 μL of MTS working reagent was added. After incubation at 37° C. with 5% CO2 for 2 h, the OD (optical density) value was detected at 490 nm.
(§4) Control group: the conditions are the same as the above without adding the active ingredient of antitumor agents, and the OD value was detected at 490 nm on the end of the experiment.
(§5) The cell inhibiting rate of the drugs to tumor cell growth was calculated according to the following formula:
(§6) 1) Cell viability (%)=OD of treated group/OD of control group×100%
(§7) 2) The cell viabilities under the different drug concentrations were determined, and then plotted against drug concentration. The IC50 value is the corresponding concentration in the obtained curve when the cell viability was 50%.

For series [4], the system named is H460-human non-small cell lung cancer (large cell carcinoma). Nature of the series: MTS cytotoxicity assay (IC50). The series is classed as cell-based. As to conditions: H460, 96 h, read-out: IC50 value in human tumor cells H460. As for the experimental part:
as §1, §2, §3, §4, §5, §6, §7

Series [5] has as its system HT-29-human colon cancer. As to the kind of experiment: MTS cytotoxicity assay (IC50). The settings on record: HT29, 96 h, read-out: IC50 value in human tumor cells HT29. The series is classed as cell-based. As for the experimental part: as §1, §2, §3, §4, §5, §6, §7
For series [6], the system named is MCF-7-human breast cancer. Nature of the series: MTS cytotoxicity assay (IC50). Type of series: cell-based. The settings on record: MCF7, 96 h, read-out: IC50 value in human tumor cells MCF7. As for the experimental part:
as §1, §2, §3, §4, §5, §6, §7

Series [7] has as its system SKOV3-human ovarian carcinoma. As to the kind of experiment: MTS cytotoxicity assay (IC50). Type of series: cell-based. As to conditions: SKOV3, 96 h, read-out: IC50 value in human tumor cells SKOV3. Here is the method:
as §1, §2, §3, §4, §5, §6, §7

Series [8] deals with du145-human prostate cancer. Nature of the series: MTS cytotoxicity assay (IC50). As to conditions: DU145, 96 h, read-out: IC50 value in human tumor cells DU145. The series is classed as cell-based. Here is the method:
as §1, §2, §3, §4, §5, §6, §7

Setting [9] is: 1.25 mg/Kg i.p. day 1 and day 4.

Consider `N.N.O=C([O-])C1(C(=O)[O-])CCC1.[Pt+2]` [Carboplatin], for which, in series [1] (24 mg/Kg i.p. day 1 and day 4), the ILS stood at 8%, the “Survived Animals on Day 42” value was 0/6 and the “Weight Changes” value was “+0.6 g”. Moreover, in series [1] (40 mg/Kg i.p. day 1 and day 4), the increase in life span (ILS) stood at 22%, the “Survived Animals on Day 42” value was 0/6 and the “Weight Changes” value is -0.4 g. In series [1] (80 mg/Kg i.p. day 1 and day 4), the ILS is on record as 50%, the “Survived Animals on Day 42” value is 1/6 and the “Weight Changes” value was -1.2 g. In series [2], the water solubility is 17 mg/mL.
Take `N.N.[Cl][Pt][Cl]` [Cisplatin]: the ILS in series [1] (setting [9]) is listed as 20%; in series [1] (2.5 mg/Kg i.p. day 1 and day 4), 125%; in series [1] (5.0 mg/Kg i.p. day 1 and day 4) it was 265%. Further, the “Survived Animals on Day 42” value is 0/6 in series [1] (setting [9]); 1/6 in series [1] (2.5 mg/Kg i.p. day 1 and day 4); 3/6 in series [1] (5.0 mg/Kg i.p. day 1 and day 4).
Regarding “cis-[trans-(1R, 2R)-diaminocyclohexane] Pt (II) (1-O-D-glucoside-propane-3-chloro-3,3-dicarboxylate) [Complex 2]”, the IC50 in series [3] amounted to 0.821 µM; in series [4], 22 µM; in series [5] it was 1.88 µM; in series [6], 2 µM; in series [7], 10 µM; in series [8], 5.19 µM. Besides, the ILS in series [1] (50 mg/Kg i.p. day 1 and day 4) was >425%; in series [1] (100 mg/Kg i.p. day 1 and day 4), >425%; in series [1] (200 mg/Kg i.p. day 1 and day 4) it was >425%. In addition, the “Survived Animals on Day 42” value was 6/6 in series [1] (50 mg/Kg i.p. day 1 and day 4); 6/6 in series [1] (100 mg/Kg i.p. day 1 and day 4); 6/6 in series [1] (200 mg/Kg i.p. day 1 and day 4). Besides, the “Weight Changes” value in series [1] (50 mg/Kg i.p. day 1 and day 4) was “+1.1 g”; in series [1] (100 mg/Kg i.p. day 1 and day 4) it was “+0 g”; in series [1] (200 mg/Kg i.p. day 1 and day 4) it was -0.4 g.
